pIC50: −log10 of the molar value.
Legend:
Bcl-xLΔ25 = biological target: T1, Bcl-xLΔ25 (Homo sapiens, UniProt Q07817); assay: Alphascreen GST competition binding assay, benzoylurea compounds vs Biotinylated Bim BH3-26 peptide on GST tagged Bcl-xL ΔC25 protein; settings: GST tagged Bcl-xL ΔC25 protein 0.6 nM, Biotinylated Bim BH3-26 peptide 5.0 nM, 4 hours at room temperature; n.b. = not binding in the assay conditions
T1 construct: GST tagged Bcl-xL ΔC25 protein

Bcl-wΔ29 = biological target: T2, Bcl-wΔ29 (Homo sapiens, UniProt Q92843); assay: Alphascreen GST competition binding assay, benzoylurea compounds vs Biotinylated Bim BH3-26 peptide on GST tagged Bclw ΔC29 protein; settings: GST tagged Bclw ΔC29 protein 0.05 nM, Biotinylated Bim BH3-26 peptide 3.0 nM, 4 hours at room temperature; values marked a tested in a separate experiment; n.b. = not binding in the assay conditions
T2 construct: GST tagged Bclw ΔC29 protein
T2 sequence (Q92843 1-164 limits assumed): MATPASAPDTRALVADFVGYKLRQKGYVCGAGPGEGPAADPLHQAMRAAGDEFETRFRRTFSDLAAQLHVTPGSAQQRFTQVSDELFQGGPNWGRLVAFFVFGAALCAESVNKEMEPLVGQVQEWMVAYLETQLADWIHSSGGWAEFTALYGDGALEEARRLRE

Mcl-1 = Mcl-1 (Homo sapiens, UniProt Q07820); assay: Alphascreen GST competition binding assay, benzoylurea compounds vs Biotinylated Bak BH3 peptide on GST tagged Mcl-1 protein; settings: GST tagged Mcl-1 protein 0.4 nM, Biotinylated Bak BH3 peptide 4.0 nM, 4 hours at room temperature; n.b. = not binding in the assay conditions
Chain of Mcl-1 (Q07820 whole entry, species assumed): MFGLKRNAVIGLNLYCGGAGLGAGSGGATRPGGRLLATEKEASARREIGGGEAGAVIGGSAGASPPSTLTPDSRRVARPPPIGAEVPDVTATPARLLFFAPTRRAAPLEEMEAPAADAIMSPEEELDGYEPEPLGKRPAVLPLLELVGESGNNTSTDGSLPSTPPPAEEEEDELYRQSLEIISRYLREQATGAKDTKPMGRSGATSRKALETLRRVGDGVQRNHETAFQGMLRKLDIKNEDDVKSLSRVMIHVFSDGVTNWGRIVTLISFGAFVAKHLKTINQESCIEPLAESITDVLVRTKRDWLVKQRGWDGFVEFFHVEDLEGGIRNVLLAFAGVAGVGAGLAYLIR

T1 sequence (Q07817 1-208 limits assumed, stated change not applied): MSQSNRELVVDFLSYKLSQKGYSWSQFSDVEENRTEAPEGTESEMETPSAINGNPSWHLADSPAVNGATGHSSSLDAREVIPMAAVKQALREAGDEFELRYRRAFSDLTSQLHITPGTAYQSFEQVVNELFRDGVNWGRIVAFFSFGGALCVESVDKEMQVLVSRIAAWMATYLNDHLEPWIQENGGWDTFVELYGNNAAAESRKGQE

SMILES | pIC50 (Bcl-xLΔ25) | pIC50 (Bcl-wΔ29) | pIC50 (Mcl-1)
CC(C)Cc1cccc(C(=O)N(CCc2ccccc2)C(=O)N[C@@H](CSCc2ccccc2)C(=O)O)c1 [(108)] | 4.06 | 4.31 | 4.14
CC(C)CCc1cccc(C(=O)N(Cc2ccccc2)C(=O)N[C@@H](CSCc2ccccc2)C(=O)O)c1 [(109)] | 4.09 | 4.54 | 4.19
CC(C)CCc1cccc(C(=O)N(CCc2ccccc2)C(=O)N[C@@H](CSCc2ccccc2)C(=O)O)c1 [(110)] | 4.07 | 4.43 | 4.19
CCCCSC[C@H](NC(=O)N(Cc1ccccc1)C(=O)c1cccc(CC(C)C)c1)C(=O)O [(111)] | 3.94 | 4.44 | 4.07
CCCCSC[C@H](NC(=O)N(CCc1ccccc1)C(=O)c1cccc(CC(C)C)c1)C(=O)O [(112)] | 3.92 | 4.40 | 3.95
CCCCSC[C@H](NC(=O)N(Cc1ccccc1)C(=O)c1cccc(CCC(C)C)c1)C(=O)O [(113)] | 4.03 | 4.55 | 4.19
CCCCSC[C@H](NC(=O)N(CCc1ccccc1)C(=O)c1cccc(CCC(C)C)c1)C(=O)O [(114)] | 4.07 | 4.49 | 4.24
